Test results taken from ChEMBL document CHEMBL1201862, “PubChem BioAssay data set” (2004).
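The compound was tested at five concentrations on cells cultured in 96-well plates, with a 48-hour exposure period. GI50 = concentration required for 50% inhibition of growth.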 Activity calls are given as the source filed them. Rule as the data show it: active = GI50 up to about 1.1 µM and inactive = higher.

Experiments:
Experiment in all cases: growth of human tumour cells (NCI), 48 h
SN12C = system: SN12C
SR = system: SR
M14 = system: M14
KM12 = system: KM12
UO-31 = system: UO-31
UACC-257 = system: UACC-257
T47D = system: T47D
K562 = system: K562
NCI-H226 = system: NCI-H226
HL-60 = system: HL-60
NCI/ADR-RES = system: NCI/ADR-RES
ACHN = system: ACHN
LOX IMVI = system: LOX IMVI
HCT-116 = system: HCT-116
MDA-MB-231 = system: MDA-MB-231
A549 = system: A549
UACC-62 = system: UACC-62
MCF7 = system: MCF7
EKVX = system: EKVX
MOLT-4 = system: MOLT-4

SMILES: COc1cc(C2C(C#N)=C(N)OC3=C2CCS(=O)(=O)c2ccc(C)cc23)cc(OC)c1OC (stereo unspecified)
- GI50 (SN12C): > 100 µM (inactive)
- GI50 (SR): 47.8 µM (inactive)
- GI50 (M14): > 100 µM (inactive)
- GI50 (KM12): > 100 µM (inactive)
- GI50 (UO-31): > 100 µM (inactive)
- GI50 (UACC-257): > 100 µM (inactive)
- GI50 (T47D): > 100 µM (inactive)
- GI50 (K562): > 100 µM (inactive)
- GI50 (NCI-H226): > 100 µM (inactive)
- GI50 (HL-60): > 100 µM (inactive)
- GI50 (NCI/ADR-RES): > 100 µM (inactive)
- GI50 (ACHN): > 100 µM (inactive)
- GI50 (LOX IMVI): > 100 µM (inactive)
- GI50 (HCT-116): > 100 µM (inactive)
- GI50 (MDA-MB-231): > 100 µM (inactive)
- GI50 (A549): > 100 µM (inactive)
- GI50 (UACC-62): > 100 µM (inactive)

SMILES: Nc1nc2cc(Cl)ccc2n1N
- GI50 (SN12C): > 100 µM (inactive)
- GI50 (SR): > 100 µM (inactive)
- GI50 (M14): > 100 µM (inactive)
- GI50 (KM12): > 100 µM (inactive)
- GI50 (UO-31): > 100 µM (inactive)
- GI50 (UACC-257): > 100 µM (inactive)
- GI50 (T47D): > 100 µM (inactive)
- GI50 (K562): > 100 µM (inactive)
- GI50 (MCF7): > 100 µM (inactive)
- GI50 (EKVX): > 100 µM (inactive)
- GI50 (NCI-H226): > 100 µM (inactive)
- GI50 (HL-60): > 100 µM (inactive)
- GI50 (ACHN): > 100 µM (inactive)
- GI50 (LOX IMVI): > 100 µM (inactive)
- GI50 (HCT-116): > 100 µM (inactive)
- GI50 (MOLT-4): > 100 µM (inactive)
- GI50 (MDA-MB-231): > 100 µM (inactive)
- GI50 (A549): > 100 µM (inactive)
- GI50 (UACC-62): 86.9 µM (inactive)

SMILES: CC1C(c2ccc(Cl)cc2)c2cc3c(cc2OC1N1CCOCC1)OCO3 (stereo unspecified)
- GI50 (SN12C): > 100 µM (inactive)
- GI50 (SR): 0.931 µM (active)
- GI50 (M14): 85.3 µM (inactive)
- GI50 (KM12): > 100 µM (inactive)
- GI50 (UO-31): 54.3 µM (inactive)
- GI50 (UACC-257): 86.1 µM (inactive)
- GI50 (T47D): 32.4 µM (inactive)
- GI50 (K562): > 100 µM (inactive)
- GI50 (MCF7): > 100 µM (inactive)
- GI50 (EKVX): > 100 µM (inactive)
- GI50 (NCI/ADR-RES): > 100 µM (inactive)
- GI50 (ACHN): 35.3 µM (inactive)
- GI50 (LOX IMVI): > 100 µM (inactive)
- GI50 (HCT-116): 95.1 µM (inactive)
- GI50 (MOLT-4): > 100 µM (inactive)
- GI50 (A549): 75.7 µM (inactive)
- GI50 (UACC-62): 74 µM (inactive)

SMILES: O=C(O)c1cccc(CN2CCCCC2)c1
- GI50 (SN12C): > 100 µM (inactive)
- GI50 (M14): > 100 µM (inactive)
- GI50 (KM12): > 100 µM (inactive)
- GI50 (UO-31): > 100 µM (inactive)
- GI50 (UACC-257): > 100 µM (inactive)
- GI50 (T47D): > 100 µM (inactive)
- GI50 (K562): > 100 µM (inactive)
- GI50 (MCF7): > 100 µM (inactive)
- GI50 (EKVX): > 100 µM (inactive)
- GI50 (NCI-H226): > 100 µM (inactive)
- GI50 (NCI/ADR-RES): > 100 µM (inactive)
- GI50 (ACHN): > 100 µM (inactive)
- GI50 (LOX IMVI): > 100 µM (inactive)
- GI50 (HCT-116): > 100 µM (inactive)
- GI50 (MOLT-4): > 100 µM (inactive)
- GI50 (MDA-MB-231): > 100 µM (inactive)
- GI50 (A549): > 100 µM (inactive)
- GI50 (UACC-62): > 100 µM (inactive)

SMILES: Cc1ccc(-n2cnc3c(N)nc(N)nc32)cc1
- GI50 (SN12C): > 100 µM (inactive)
- GI50 (M14): > 100 µM (inactive)
- GI50 (KM12): 42.6 µM (inactive)
- GI50 (UO-31): 58.9 µM (inactive)
- GI50 (UACC-257): > 100 µM (inactive)
- GI50 (T47D): > 100 µM (inactive)
- GI50 (MCF7): 66.5 µM (inactive)
- GI50 (EKVX): 81.5 µM (inactive)
- GI50 (NCI-H226): > 100 µM (inactive)
- GI50 (NCI/ADR-RES): > 100 µM (inactive)
- GI50 (ACHN): > 100 µM (inactive)
- GI50 (LOX IMVI): > 100 µM (inactive)
- GI50 (HCT-116): > 100 µM (inactive)
- GI50 (MOLT-4): 44.7 µM (inactive)
- GI50 (MDA-MB-231): > 100 µM (inactive)
- GI50 (A549): 69.5 µM (inactive)
- GI50 (UACC-62): 84.1 µM (inactive)

SMILES: S=C1/C(=N/c2ccccc2)N(c2ccccc2)/C(=N\c2ccccn2)N1c1ccccc1
- GI50 (SN12C): 8.41 µM (inactive)
- GI50 (SR): 7.83 µM (inactive)
- GI50 (KM12): 12.9 µM (inactive)
- GI50 (UO-31): 13.3 µM (inactive)
- GI50 (UACC-257): 14.3 µM (inactive)
- GI50 (T47D): 15 µM (inactive)
- GI50 (K562): > 100 µM (inactive)
- GI50 (EKVX): 13.5 µM (inactive)
- GI50 (NCI-H226): 18.2 µM (inactive)
- GI50 (HL-60): > 100 µM (inactive)
- GI50 (NCI/ADR-RES): 16.7 µM (inactive)
- GI50 (ACHN): 4.32 µM (inactive)
- GI50 (LOX IMVI): 6.61 µM (inactive)
- GI50 (HCT-116): 14.2 µM (inactive)
- GI50 (MOLT-4): > 100 µM (inactive)
- GI50 (MDA-MB-231): 16.6 µM (inactive)
- GI50 (A549): 17.8 µM (inactive)
- GI50 (UACC-62): 2.77 µM (inactive)
